The assay has as its target CFTR-mediated chloride transport in human intestinal epithelial enteroid cells (Homo sapiens, UniProt P13569). Put plainly: Membrane potential dye, Enteroid Assay A. The format is cell-based. The following applies: for EC50: read-out: Ent. A EC50. The method, boiled down: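 Membrane potential dye (20 μM methyl oxonol, with 30 μM CaCCinh-A01 and 30 μM Chicago Sky Blue) loaded 25 min at room temperature into ROCK-inhibitor-seeded human enteroid cells. Chloride-free stimulation buffer triggered transport, followed by 15 min fluorescence. % Activity relative to 3 μM/3 μM/300 nM triple-combination control.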

Where [1] appears, read: enteroid cells incubated with test compound 18-24 hours, acute 10 μM forskolin and 300 nM N-[2,4-bis(1,1-dimethylethyl)-5-hydroxyphenyl]-1,4-dihydro-4-oxoquinoline-3-carboxamide.
The mark [2] stands for this setting: percentage of chloride transport of triple combination control (3 μM N-[(6-amino-2-pyridyl)sulfonyl]-6-(3-fluoro-5-isobutoxy-phenyl)-2-[(4S)-2,2,4-trimethylpyrrolidin-1-yl]pyridine-3-carboxamide based).

A word on the EC50: it is the concentration that produces a half-maximal response.

Where two headings read alike, the source gives them in different places.

CFTR-mediated chloride transport in human intestinal epithelial enteroid cells, sequence (P13569 with tags, fused parts or gaps DEL508-508): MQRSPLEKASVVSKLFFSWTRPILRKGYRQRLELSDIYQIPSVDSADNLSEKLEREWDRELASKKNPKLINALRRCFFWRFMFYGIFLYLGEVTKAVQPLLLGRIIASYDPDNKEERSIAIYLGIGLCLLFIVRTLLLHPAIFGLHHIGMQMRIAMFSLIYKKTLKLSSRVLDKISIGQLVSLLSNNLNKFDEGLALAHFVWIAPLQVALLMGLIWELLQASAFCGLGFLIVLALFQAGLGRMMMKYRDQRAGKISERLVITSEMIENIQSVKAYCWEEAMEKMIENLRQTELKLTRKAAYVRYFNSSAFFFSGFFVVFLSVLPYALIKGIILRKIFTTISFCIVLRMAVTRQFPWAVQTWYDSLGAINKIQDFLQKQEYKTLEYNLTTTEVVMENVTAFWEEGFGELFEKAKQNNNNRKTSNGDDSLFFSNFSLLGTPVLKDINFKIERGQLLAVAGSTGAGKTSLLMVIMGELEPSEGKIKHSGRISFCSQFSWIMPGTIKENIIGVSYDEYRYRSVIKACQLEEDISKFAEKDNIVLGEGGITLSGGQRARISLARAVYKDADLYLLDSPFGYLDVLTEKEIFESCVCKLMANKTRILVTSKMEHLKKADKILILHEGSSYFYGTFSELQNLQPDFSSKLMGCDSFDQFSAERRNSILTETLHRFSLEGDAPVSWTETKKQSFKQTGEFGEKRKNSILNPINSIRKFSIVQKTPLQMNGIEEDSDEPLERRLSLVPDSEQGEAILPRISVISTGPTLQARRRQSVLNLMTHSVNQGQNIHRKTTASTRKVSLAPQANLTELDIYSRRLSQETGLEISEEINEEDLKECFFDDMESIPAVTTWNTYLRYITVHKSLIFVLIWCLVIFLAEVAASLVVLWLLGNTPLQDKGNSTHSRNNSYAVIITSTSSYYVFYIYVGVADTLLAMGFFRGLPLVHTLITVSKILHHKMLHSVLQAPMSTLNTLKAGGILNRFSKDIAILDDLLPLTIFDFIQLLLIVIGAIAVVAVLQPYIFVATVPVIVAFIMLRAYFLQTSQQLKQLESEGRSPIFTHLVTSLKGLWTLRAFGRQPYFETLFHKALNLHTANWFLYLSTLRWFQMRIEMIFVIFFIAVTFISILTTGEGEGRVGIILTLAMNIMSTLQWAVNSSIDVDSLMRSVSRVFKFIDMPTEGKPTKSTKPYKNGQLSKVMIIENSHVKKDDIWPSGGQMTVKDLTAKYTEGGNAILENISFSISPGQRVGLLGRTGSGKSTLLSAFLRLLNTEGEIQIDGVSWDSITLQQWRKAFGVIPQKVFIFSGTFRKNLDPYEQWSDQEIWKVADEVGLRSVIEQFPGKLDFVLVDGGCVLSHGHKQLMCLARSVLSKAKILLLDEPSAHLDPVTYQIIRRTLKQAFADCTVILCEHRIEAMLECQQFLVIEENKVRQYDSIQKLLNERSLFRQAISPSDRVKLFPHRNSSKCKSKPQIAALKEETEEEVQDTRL

Turning to `Cc1cccc(C)c1-c1cc2nc(n1)NS(=O)(=O)c1cccc(c1)C(=O)N1Cc3ccccc3[C@@H](O2)[C@H]1CC(C)C` (stereo in doubt) [Compound 332], the EC50 under setting [1] is under 1 µM. Also, the “Ent. A Max Activity (%)” value under setting [2] is on record as “+++ (+++ is >60%)”.

In the case of `Cc1cccc(C)c1-c1cc2nc(n1)NS(=O)(=O)c1cccc(c1)C(=O)N1CCCC1CO2` (centres unmarked) [Compound 301], the “Ent. A Max Activity (%)” value under setting [2] is given as “+ (+ is <300%)”.

On to `CCCN1CCN2C[C@@H](C1)Oc1cc(-c3c(C)cccc3C)nc(n1)NS(=O)(=O)c1cccc(c1)C2=O` [Compound 31], for which, under “Enteroid Assay A”, the “Ent. A Max Activity (%)” value is “+++ (+++ is >600%)” and the EC50 was under 1 µM.

As to `Cc1cccc(C)c1-c1cc2nc(n1)NS(=O)(=O)c1cccc(c1)C(=O)N1CCN(CCC3C4(CC4)C34CC4)C[C@H](C1)O2` [Compound 18], where the note is “Enteroid Assay A”, the “Ent. A Max Activity (%)” value is “+ (+ is <30%)” and the EC50 lay within 1 to 3 µM.

Regarding `Cc1cccc(C)c1-c1cc2nc(n1)NS(=O)(=O)c1cccc(c1)C(=O)N1CCN(C3CCC(C)(C)C3)C[C@H](C1)O2` (single isomer, unassigned) [Compound 37], where the note is “Enteroid Assay A”, the “Ent. A Max Activity (%)” value was “+++ (+++ is >600%)” and the EC50 was under 1 µM.

Take `Cc1cccc(C)c1-c1cc2nc(n1)NS(=O)(=O)c1cncc(c1)C(=O)N1Cc3ccccc3[C@H](C1)O2` [Compound 361]: the “Ent. A Max Activity (%)” value under setting [2] is on record as “+ (+ is <300%)”.

For the compound `Cc1cccc(C)c1-c1cc2nc(n1)NS(=O)(=O)c1cccc(c1)C(=O)N1C[C@H]3C[C@@H]1[C@@H](C3)O2` [Compound 363], the EC50 under setting [1] was in the range of 3 to 30 µM. The “Ent. A Max Activity (%)” value under setting [2] is “+++ (+++ is >60%)”.

For `Cc1cccc(C)c1-c1cc2nc(n1)NS(=N)(=O)c1cccc(c1)C(=O)N1CCN(C(=O)OC(C)(C)C)CC(C1)O2` (centres unmarked) [Compound 240, tert-butyl 12-(2,6-dimethylphenyl)-8-imino-2,8-dioxo-15-oxa-8λ^6-thia-1,9,11,18,22-pentaazatetracyclo[14.4.1.13,7.110,14]tricosa-3,5,7(23),10,12,14(22)-hexaene-18-carboxylate], under “Enteroid Assay A”, the “Ent. A Max Activity (%)” value was “++ (++ is 30-60%)” and the EC50 was 3 to 30 µM.

`Cc1cccc(C)c1-c1cc2nc(n1)NS(=O)(=O)c1cccc(c1)C(=O)N1CCN(C(=O)OC(C)(C)C)C(CO2)C1` (centres unmarked) [Compound 322]: the EC50 under setting [1] was under 1 µM. Also, under setting [2], the “Ent. A Max Activity (%)” value is reported as “++ (++ is 30-60%)”.

With `Cc1cccc(C)c1-c1cc2nc(n1)NS(=O)(=O)c1cccc(c1)C(=O)N1CCN(Cc3ccccn3)C[C@@H]1CO2` [Compound 281], under setting [2], the “Ent. A Max Activity (%)” value is listed as “++ (++ is 30-60%)”.

For the compound `Cc1cccc(C)c1-c1cc2nc(n1)NS(=O)(=O)c1cccc(c1)C(=O)N1CCNCC(C1)O2` (centres unmarked) [Compound 42, 12-(2,6-Dimethylphenyl)-15-oxa-8λ^6-thia-1,9,11,18,22-pentaazatetracyclo[14.4.1.13,7.110,14]tricosa-3(23),4,6,10(22),11,13-hexaene-2,8,8-trione], the “Ent. A Max Activity (%)” value under setting [2] is listed as “++ (++ is 30-60%)”.

As for `Cc1cccc(C)c1-c1cc2nc(n1)NS(=O)(=O)c1cccc(c1)C(=O)N1C[C@@H](CN(C)C[C@@H]1C(C)C)O2` [Compound 149], for the setting “Enteroid Assay A”, the “Ent. A Max Activity (%)” value is “+++ (+++ is >600%)” and the EC50 is under 1 µM.

In the case of `Cc1cccc(C)c1-c1cc2nc(n1)NS(=O)(=O)c1cccc(c1)C(=O)N1CCN([C@H]3CC[C@@H](F)CC3)C[C@H](C1)O2` (single isomer, unassigned) [Compound 39], for the setting “Enteroid Assay A”, the “Ent. A Max Activity (%)” value was “+++ (+++ is >600%)” and the EC50 was 1 to 3 µM.

Take `Cc1cccc(C)c1-c1cc2nc(n1)NS(=O)(=O)c1cccc(c1)C(=O)N1CCN(CCC(C)(C)C)C(CO2)C1` (centres unmarked) [Compound 177, 18-(3,3-Dimethylbutyl)-12-(2,6-dimethylphenyl)-15-oxa-8λ^6-thia-1,9,11,18,22-pentaazatetracyclo[15.3.1.13,7.110,14]tricosa-3(23),4,6,10(22),11,13-hexaene-2,8,8-trione]: under setting [1], the EC50 is under 1 µM. Also, the “Ent. A Max Activity (%)” value under setting [2] is on record as “++ (++ is 30-60%)”.

As to `Cc1cccc(C)c1-c1cc2nc(n1)NS(=O)(=O)c1cccc(c1)C(=O)N1CCN(C[C@@H]3CC(C)(C)NC3=O)C[C@@H]1CO2` (stereo in doubt) [Compound 293], the “Ent. A Max Activity (%)” value under setting [2] is listed as “+ (+ is <300%)”.

For the compound `Cc1cccc(C)c1-c1cc2nc(n1)NS(=O)(=O)c1cncc(c1)C(=O)N1Cc3ccccc3[C@@H](C1)O2` [Compound 360], the “Ent. A Max Activity (%)” value under setting [2] is reported as “+ (+ is <300%)”.

Consider `Cc1cccc(C)c1-c1cc2nc(n1)NS(=O)(=O)c1cccc(c1)C(=O)N1CCN(Cc3sccc3Oc3ccccc3)CC(C1)O2` (centres unmarked) [Compound 61], for which the EC50 under setting [1] was under 1 µM. Further, under setting [2], the “Ent. A Max Activity (%)” value was “+++ (+++ is >60%)”.

In the case of `Cc1cccc(C)c1-c1cc2nc(n1)NS(=O)(=O)c1cccc(c1)C(=O)N1CCN(C(=O)OCc3ccccc3)C[C@@H](O2)[C@H]1C` (single isomer, unassigned) [Compound 113], where the note is “Enteroid Assay A”, the “Ent. A Max Activity (%)” value is given as “+ (+ is <30%)” and the EC50 is 3 to 30 µM.

For `Cc1cccc(C)c1-c1cc2nc(n1)NS(=O)(=O)c1cccc(c1)C(=O)N1CCNC[C@@H]1CO2` [Compound 161, (8R)-13-(2,6-Dimethylphenyl)-10-oxa-17λ^6-thia-3,6,14,16,23-pentaazatetracyclo[16.3.1.111,15.03,8]tricosa-1(21),11,13,15(23),18(22),19-hexaene-2,17,17-trione], under setting [1], the EC50 fell in the range of 3 to 30 µM. Besides, the “Ent. A Max Activity (%)” value under setting [2] is given as “++ (++ is 30-60%)”.

Take `Cc1cccc(C)c1-c1cc2nc(n1)NS(=N)(=O)c1cccc(c1)C(=O)N1CCN(CCC(C)(C)C)CC(C1)O2` (centres unmarked) [Compound 247]: where the note is “Enteroid Assay A”, the “Ent. A Max Activity (%)” value is “+ (+ is <30%)” and the 50% effective concentration (EC50) was in the range of 1 to 3 µM.

With `Cc1cccc(C)c1-c1cc2nc(n1)NS(=O)(=O)c1cccc(c1)C(=O)N1CC(CC(c3ccccc3)C1)O2` (single isomer, unassigned) [Compound 223, 18-(2,6-dimethylphenyl)-5-phenyl-2-oxa-14λ^6-thia-7,15,17,20-tetraazatetracyclo[14.3.1.13,7.19,13]docosa-1(19),9(21),10,12,16(20),17-hexaene-8,14,14-trione], the half-maximal effective concentration (EC50) under setting [1] is under 1 µM. Besides, the “Ent. A Max Activity (%)” value under setting [2] was “++ (++ is 30-60%)”.

As to `Cc1cccc(C)c1-c1cc2nc(n1)NS(=O)(=O)c1cccc(c1)C(=O)N1CCN(CC3(C)COC3)CC(C1)O2` (centres unmarked) [Compound 56], the EC50 under setting [1] fell in the range of 3 to 30 µM. In addition, the “Ent. A Max Activity (%)” value under setting [2] was “++ (++ is 30-60%)”.

For the compound `Cc1cccc(C)c1-c1cc2nc(n1)NS(=O)(=O)c1cccc(c1)C(=O)N1CCN(CC3CCOC3)C[C@H](C1)O2` (some centres unmarked) [Compound 30], under “Enteroid Assay A”, the “Ent. A Max Activity (%)” value is recorded as “+++ (+++ is >600%)” and the concentration for a half-maximal effect (EC50) lay within 1 to 3 µM.

As to `Cc1cccc(C)c1-c1cc2nc(n1)NS(=O)(=O)c1cccc(c1)C(=O)N1CCN(CC3CCOC(C)(C)C3)C[C@@H]1CO2` (some centres unmarked) [Compound 256], the EC50 under setting [1] was under 1 µM. Further, under setting [2], the “Ent. A Max Activity (%)” value is reported as “+++ (+++ is >60%)”.

Consider `Cc1cccc(C)c1-c1cc2nc(n1)NS(=O)(=O)c1cccc(c1)C(=O)N1CCN(C(=O)NC(C)(C)C)C[C@@H]1CO2` [Compound 291], for which the “Ent. A Max Activity (%)” value under setting [2] is on record as “+++ (+++ is >60%)”.

Take `Cc1cccc(C)c1-c1cc2nc(n1)NS(=O)(=O)c1cccc(c1)C(=O)N1CCN(C(=O)OC(C)(C)C)[C@@H](CC(C)C)[C@H](C1)O2` [Compound 117, tert-Butyl (16S,17S)-12-(2,6-dimethylphenyl)-17-(2-methylpropyl)-2,8,8-trioxo-15-oxa-8λ^6-thia-1,9,11,18,22-pentaazatetracyclo[14.4.1.13,7.110,14]tricosa-3(23),4,6,10(22),11,13-hexaene-18-carboxylate]: where the note is “Enteroid Assay A”, the “Ent. A Max Activity (%)” value was “+++ (+++ is >600%)” and the EC50 was under 1 µM.

Consider `Cc1cccc(C)c1-c1cc2nc(n1)NS(=O)(=O)c1cccc(c1)C(=O)N1C[C@@H](CN(C)C[C@@H]1CCC(C)C)O2` [Compound 131, (16R,20S)-12-(2,6-Dimethylphenyl)-18-methyl-20-(3-methylbutyl)-15-oxa-8λ^6-thia-1,9,11,18,22-pentaazatetracyclo[14.4.1.13,7.110,14]tricosa-3(23),4,6,10(22),11,13-hexaene-2,8,8-trione], for which, under “Enteroid Assay A”, the “Ent. A Max Activity (%)” value is listed as “++ (++ is 30-60%)” and the EC50 is under 1 µM.

As to `Cc1cccc(C)c1-c1cc2nc(n1)NS(=O)(=O)c1cccc(c1)C(=O)N1CCN(CCc3ccccc3)C[C@@H]1CO2` [Compound 299], under setting [1], the EC50 is under 1 µM. Besides, the “Ent. A Max Activity (%)” value under setting [2] is given as “++ (++ is 30-60%)”.

As to `Cc1cccc(C)c1-c1cc2nc(n1)NS(=O)(=O)c1cccc(c1)C(=O)N1CCN(Cc3ccc(C(C)(C)C)cc3)C[C@H](C1)O2` [Compound 16], under “Enteroid Assay A”, the “Ent. A Max Activity (%)” value is given as “+++ (+++ is >600%)” and the EC50 was under 1 µM.

For `Cc1cccc(C)c1-c1cc2nc(n1)NS(=O)(=O)c1cccc(c1)C(=O)N1C[C@@H](CN(C3CC4(CCCC4)C3)C[C@H]1CC(C)C)O2` [Compound 141], for the setting “Enteroid Assay A”, the “Ent. A Max Activity (%)” value was “+++ (+++ is >600%)” and the EC50 was under 1 µM.

In the case of `Cc1cccc(C)c1-c1cc2nc(n1)NS(=O)(=O)c1cccc(c1)C(=O)N1CCN(CCC(C)(C)C)CC1CO2` (centres unmarked) [Compound 310], the EC50 under setting [1] is under 1 µM. For the same compound, under setting [2], the “Ent. A Max Activity (%)” value was “++ (++ is 30-60%)”.

As for `Cc1cccc(C)c1-c1cc2nc(n1)NS(=O)(=O)c1cccc(c1)C(=O)N1CCN(Cc3nccs3)C[C@@H]1CO2` [Compound 275], under setting [1], the EC50 lay within 3 to 30 µM. For the same compound, the “Ent. A Max Activity (%)” value under setting [2] was “+++ (+++ is >60%)”.

Consider `Cc1cccc(C)c1-c1cc2nc(n1)NS(=O)(=O)c1cccc(c1)C(=O)N1CCN(C3CCC4(CC3)CC4)C[C@H](C1)O2` [Compound 13], for which, where the note is “Enteroid Assay A”, the “Ent. A Max Activity (%)” value was “+++ (+++ is >600%)” and the EC50 was under 1 µM.

The record behind these values is patent US20240018161A1, “MODULATORS OF CYSTIC FIBROSIS TRANSMEMBRANE CONDUCTANCE REGULATOR” (VERTEX PHARMACEUTICALS INCORPORATED, priority 2020, published 2024).
